In PubChem BioAssay AID1963831 (Molecular Pharmacology Branch, DTP, NCI, 2024):

Tested on: 889142-216-R-J1-PDC complex spheroid viability
Assay: Anticancer human tumor 889142-216-R-J1-PDC patient-derived bladder carcinoma cell line growth inhibition [POLQ]
Conditions: for IC50: curve of first compound; for viability, T/C: stronger effect = lower value
How it was run: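 Growth inhibition in 3D: complex spheroids (tumor PDC, HUVEC, MSC) treated with POLQ inhibitor combinations; where Cmax unknown, highest tested concentration 10 microM, except SN-38 at 1 microM.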

[1] = second compound 0.0316 µM, first compound 0.0316 µM
[2] = second compound 0.0316 µM, first compound 0.1 µM
[3] = second compound 0.0316 µM, first compound 0.316 µM
[4] = second compound 0.0316 µM, first compound 1 µM
[5] = second compound 0.0316 µM, first compound 3.16 µM
[6] = second compound 0.0316 µM, first compound 10 µM
[7] = second compound 0.1 µM, first compound 0.0316 µM
[8] = second compound 0.1 µM, first compound 0.1 µM
[9] = second compound 0.1 µM, first compound 0.316 µM
[10] = second compound 0.1 µM, first compound 1 µM
[11] = second compound 0.1 µM, first compound 3.16 µM
[12] = second compound 0.1 µM, first compound 10 µM
[13] = second compound 0.316 µM, first compound 0.0316 µM
[14] = second compound 0.316 µM, first compound 0.1 µM
[15] = second compound 0.316 µM, first compound 0.316 µM
[16] = second compound 0.316 µM, first compound 1 µM
[17] = second compound 0.316 µM, first compound 3.16 µM
[18] = second compound 0.316 µM, first compound 10 µM
[19] = second compound 1 µM, first compound 0.0316 µM
[20] = second compound 1 µM, first compound 0.1 µM
[21] = second compound 1 µM, first compound 0.316 µM
[22] = second compound 1 µM, first compound 1 µM
[23] = second compound 1 µM, first compound 3.16 µM
[24] = second compound 1 µM, first compound 10 µM
[25] = second compound 3.16 µM, first compound 0.0316 µM
[26] = second compound 3.16 µM, first compound 0.1 µM
[27] = second compound 3.16 µM, first compound 0.316 µM
[28] = second compound 3.16 µM, first compound 1 µM
[29] = second compound 3.16 µM, first compound 3.16 µM
[30] = second compound 3.16 µM, first compound 10 µM
[31] = second compound 10 µM, first compound 0.0316 µM
[32] = second compound 10 µM, first compound 0.1 µM
[33] = second compound 10 µM, first compound 0.316 µM
[34] = second compound 10 µM, first compound 1 µM
[35] = second compound 10 µM, first compound 3.16 µM
[36] = second compound 10 µM, first compound 10 µM
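Also: spheroids exposed to compounds for seven days.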
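For viability, T/C in this document: 100% = DMSO vehicle control viability.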

## CC(C)n1c(=O)n(C)c2cnc3cc(F)c(-c4ccc(OCCCN5CCCCC5)nc4)cc3c21 + Nc1ccc(C#CCN(C(=O)Cc2ncc(C(F)(F)F)cc2C(F)(F)F)c2ccc(F)cc2)nn1
Second compound 0.0316 µM
  IC50: > 10 µM
Second compound 0.1 µM
  IC50: > 10 µM
Second compound 0.316 µM
  IC50: > 10 µM
Second compound 1 µM
  IC50: > 10 µM
Second compound 3.16 µM
  IC50: > 10 µM
Second compound 10 µM
  IC50: > 10 µM
[1]
  viability, T/C: 96.5%
[2]
  viability, T/C: 113%
[3]
  viability, T/C: 119%
[4]
  viability, T/C: 79.2%
[5]
  viability, T/C: 65.5%
[6]
  viability, T/C: 95.2%
[7]
  viability, T/C: 122%
[8]
  viability, T/C: 89.3%
[9]
  viability, T/C: 70.7%
[10]
  viability, T/C: 84%
[11]
  viability, T/C: 62%
[12]
  viability, T/C: 76.1%
[13]
  viability, T/C: 95.8%
[14]
  viability, T/C: 85.1%
[15]
  viability, T/C: 79.9%
[16]
  viability, T/C: 80.7%
[17]
  viability, T/C: 56.4%
[18]
  viability, T/C: 95.8%
[19]
  viability, T/C: 91.4%
[20]
  viability, T/C: 80.3%
[21]
  viability, T/C: 104%
[22]
  viability, T/C: 88.7%
[23]
  viability, T/C: 57.3%
[24]
  viability, T/C: 97.8%
[25]
  viability, T/C: 85.6%
[26]
  viability, T/C: 72.8%
[27]
  viability, T/C: 80.5%
[28]
  viability, T/C: 88%
[29]
  viability, T/C: 70.1%
[30]
  viability, T/C: 113%
[31]
  viability, T/C: 79.3%
[32]
  viability, T/C: 97.8%
[33]
  viability, T/C: 88.6%
[34]
  viability, T/C: 79.7%
[35]
  viability, T/C: 59.7%
[36]
  viability, T/C: 97.2%

## CCCS(=O)(=O)Nc1ccc(F)c(C(=O)c2c[nH]c3ncc(-c4ccc(Cl)cc4)cc23)c1F + Cc1cccc(N(C)C(=O)C2C(O)CCN2c2nc(C)cc(C(F)(F)F)c2C#N)c1
Second compound 0.0316 µM
  IC50: > 10 µM
Second compound 0.1 µM
  IC50: > 10 µM
Second compound 0.316 µM
  IC50: > 10 µM
Second compound 1 µM
  IC50: 9.29 µM
Second compound 3.16 µM
  IC50: 8.82 µM
Second compound 10 µM
  IC50: 6.13 µM
[1]
  viability, T/C: 100%
[2]
  viability, T/C: 116%
[3]
  viability, T/C: 98.7%
[4]
  viability, T/C: 105%
[5]
  viability, T/C: 83.5%
[6]
  viability, T/C: 50.5%
[7]
  viability, T/C: 121%
[8]
  viability, T/C: 101%
[9]
  viability, T/C: 91%
[10]
  viability, T/C: 96.5%
[11]
  viability, T/C: 81.3%
[12]
  viability, T/C: 48.8%
[13]
  viability, T/C: 110%
[14]
  viability, T/C: 86.7%
[15]
  viability, T/C: 93.3%
[16]
  viability, T/C: 91.7%
[17]
  viability, T/C: 72.1%
[18]
  viability, T/C: 60.5%
[19]
  viability, T/C: 94.9%
[20]
  viability, T/C: 91.1%
[21]
  viability, T/C: 92.7%
[22]
  viability, T/C: 90.5%
[23]
  viability, T/C: 66.8%
[24]
  viability, T/C: 48.9%
[25]
  viability, T/C: 101%
[26]
  viability, T/C: 96%
[27]
  viability, T/C: 81.1%
[28]
  viability, T/C: 79.2%
[29]
  viability, T/C: 75.2%
[30]
  viability, T/C: 44.9%
[31]
  viability, T/C: 65.1%
[32]
  viability, T/C: 86.2%
[33]
  viability, T/C: 90.1%
[34]
  viability, T/C: 66.3%
[35]
  viability, T/C: 67%
[36]
  viability, T/C: 38.5%

## COc1cccc(OCCCN)c1-c1cc(Nc2cnc(C#N)cn2)n[nH]1 + Cc1cccc(N(C)C(=O)C2C(O)CCN2c2nc(C)cc(C(F)(F)F)c2C#N)c1
Second compound 0.0316 µM
  IC50: 0.0939 µM
Second compound 0.1 µM
  IC50: 0.083 µM
Second compound 0.316 µM
  IC50: 0.0292 µM
Second compound 1 µM
  IC50: 0.0356 µM
Second compound 3.16 µM
  IC50: 0.143 µM
Second compound 10 µM
  IC50: 0.0274 µM
Second compound 0.0316 µM, first compound 0.00316 µM
  viability, T/C: 94.4%
Second compound 0.0316 µM, first compound 0.01 µM
  viability, T/C: 65.8%
[1]
  viability, T/C: 53.7%
[2]
  viability, T/C: 52.1%
[3]
  viability, T/C: 49%
[4]
  viability, T/C: 45%
Second compound 0.1 µM, first compound 0.00316 µM
  viability, T/C: 93.2%
Second compound 0.1 µM, first compound 0.01 µM
  viability, T/C: 95.6%
[7]
  viability, T/C: 59.3%
[8]
  viability, T/C: 52.3%
[9]
  viability, T/C: 49.4%
[10]
  viability, T/C: 42.9%
Second compound 0.316 µM, first compound 0.00316 µM
  viability, T/C: 118%
Second compound 0.316 µM, first compound 0.01 µM
  viability, T/C: 62.3%
[13]
  viability, T/C: 48.2%
[14]
  viability, T/C: 50.6%
[15]
  viability, T/C: 50.5%
[16]
  viability, T/C: 39.7%
Second compound 1 µM, first compound 0.00316 µM
  viability, T/C: 110%
Second compound 1 µM, first compound 0.01 µM
  viability, T/C: 62%
[19]
  viability, T/C: 50.7%
[20]
  viability, T/C: 51.7%
[21]
  viability, T/C: 56.8%
[22]
  viability, T/C: 38.2%
Second compound 3.16 µM, first compound 0.00316 µM
  viability, T/C: 81%
Second compound 3.16 µM, first compound 0.01 µM
  viability, T/C: 73.6%
[25]
  viability, T/C: 63.8%
[26]
  viability, T/C: 46.2%
[27]
  viability, T/C: 49.8%
[28]
  viability, T/C: 51.8%
Second compound 10 µM, first compound 0.00316 µM
  viability, T/C: 74.8%
Second compound 10 µM, first compound 0.01 µM
  viability, T/C: 73.5%
[31]
  viability, T/C: 46.6%
[32]
  viability, T/C: 48.8%
[33]
  viability, T/C: 42.7%
[34]
  viability, T/C: 43.9%
